Values after ≈ are worked out from the molar mass of the structure shown. Active and inactive are the calls of the source. The rule behind the calls is not given here.
Experiments:
[1] = system: Mycobacterium tuberculosis; assay: Antimicrobial activity against wild-type Mycobacterium tuberculosis isolate LV13 expressing ATP synthase AtpE I66M mutant protein assessed as growth inhibition in early log-phase by 7H10 agar dilution method; type: functional, organism-based
[2] = system: ATP synthase (Mycobacterium tuberculosis), P9WPU9+P9WPU5+P9WPU7+P9WPV5+P9WPS1+P9WPV1+P9WPV7+P9WPV3 [A63P]; assay: Inhibition of Mycobacterium tuberculosis isolate BK12 ATP synthase subunit c A63P mutant-mediated ATP synthesis after 24 hrs by luminometry
[3] = system: Mycobacterium tuberculosis; assay: Antimicrobial activity against wild-type Mycobacterium tuberculosis isolate BK12 expressing ATP synthase AtpE A63P mutant protein assessed as growth inhibition in early log-phase by 7H10 agar dilution method; type: functional, organism-based
[4] = system: ATP synthase (Mycobacterium tuberculosis), P9WPU9+P9WPU5+P9WPU7+P9WPV5+P9WPS1+P9WPV1+P9WPV7+P9WPV3 [I66M]; assay: Inhibition of Mycobacterium tuberculosis isolate LV13 ATP synthase subunit c I66M mutant-mediated ATP synthesis after 24 hrs by luminometry
[5] = system: Mycobacterium tuberculosis; assay: Antimicrobial activity against Mycobacterium tuberculosis H37Rv isolate BK12 expressing ATP synthase atpE A63P mutant protein by 7H10 broth dilution method; type: functional
[6] = system: Mycobacterium tuberculosis; assay: Antimicrobial activity against Mycobacterium tuberculosis H37Rv isolate LV13 expressing ATP synthase atpE I66M mutant protein by 7H10 broth dilution method; type: functional
[7] = system: Mycobacterium tuberculosis; assay: Antimicrobial activity against Mycobacterium tuberculosis H37Rv isolate LV13 expressing ATP synthase atpE I66M mutant protein by 7H9 broth dilution method; type: functional
[8] = system: Mycobacterium tuberculosis; assay: Ratio of MIC for Mycobacterium tuberculosis H37Rv isolate LV13 expressing ATP synthase atpE I66M mutant protein to MIC for Mycobacterium tuberculosis H37Rv; type: functional
[9] = system: Mycobacterium tuberculosis; assay: Ratio of MIC for Mycobacterium tuberculosis H37Rv isolate BK12 expressing ATP synthase atpE A63P mutant protein to MIC for Mycobacterium tuberculosis H37Rv; type: functional
[10] = system: Mycobacterium tuberculosis; assay: Antimicrobial activity against Mycobacterium tuberculosis H37Rv isolate BK12 expressing ATP synthase atpE A63P mutant protein by 7H9 broth dilution method; type: functional

Row | Compound | Activity [1] | inhibition [2] | Activity [3] | inhibition [4] | MIC [5] [µg/mL] | MIC [6] [µg/mL] | MIC [7] [µg/mL] | Ratio [8] | Ratio [9] | MIC [10] [µg/mL]
1 | COc1nc2ccc(Br)cc2cc1[C@@H](c1ccccc1)[C@@](O)(CCN(C)C)c1cccc2ccccc12 | Active | inactive | Active | inactive | – | – | – | – | – | –
2 | COc1nc2ccc(Br)cc2cc1[C@@H](c1ccccc1)[C@@](O)(CCN(C)C)c1cccc2ccccc12 [BEDAQUILINE] | – | – | – | – | 13 (≈ 23.4 µM) | 13 (≈ 23.4 µM) | 11 (≈ 19.8 µM) | >200 | >200 | 11 (≈ 19.8 µM)
